The source of these data is patent US8236783B2, “ROS-sensitive iron chelators and methods of using the same” (Duke University, priority 2006, dated 2012).

Data set [1] can be described thus: 2-deoxyribose oxidative degradation assay (hydroxyl radical formation). As to conditions: chelator 0-400 μM, 200 μM H2O2, 10 μM FeCl3, 2 mM ascorbic acid, 15 mM deoxyribose, pH 7.4, 60 min at 37° C.
Protocol: Effect of chelator concentration on deoxyribose degradation by OH.. A and A0 are the absorbance at 532 nm in the presence or absence of chelator, respectively. Values below A/Ao=1 indicate protection of deoxyribose. Conditions: 200 μM H2O2, 10 μM FeCl3, 2 mM ascorbic acid, 15 mM deoxyribose in pH 7.4 NaHPO4 buffer.
Values of A/Ao above 1 indicate that the additive promotes OH. formation, whereas values below 1 indicate that the additive either scavenges OH. more efficiently than deoxyribose, or that it inhibits iron-catalyzed OH. formation via effective iron chelation.
The formation of hydroxyl radicals was measured by using a 2-deoxyribose oxidative degradation assay (Aruoma, O. I., Deoxyribose Assay for Detecting Hydroxyl Radicals. In Methods in Enzymol., 1994; Vol. 233, pp 57-66; Halliwell, B. et al., Anal. Biochem. 1987, 165, 215-219). In this assay, hydroxyl radicals, generated by reaction of an iron complex with H2O2 in the presence of ascorbic acid as a reducing agent, attack 2-deoxyribose to form malondialdehyde, which upon heating with TBA at low pH yields a pink chromogen (λmax=532 nm). Scavengers that react more effectively with hydroxyl radicals than deoxyribose result in less chromogen formation. Chelators that prevent iron from reacting with H2O2 also result in a decrease in absorption at 532 nm. Many standard buffers such as HEPES and TRIS are hydroxyl radical scavengers; therefore, we performed all assays in 50 mM NaH2PO4 buffered to pH 7.4. Our standard reaction conditions consisted of 1-mL buffered solutions prepared by sequential addition of the following reagents at their final concentrations: chelator (0-400 μM), FeCl3 (10 μM), 2-deoxyribose (15 mM), H2O2 (200 μM) and ascorbic acid (2 mM). The reactions were stirred for 60 min at 37° C., then quenched with 1 mL of TBA (1% w/v in 0.05 M NaOH) and 1 mL of TCA (2.8% w/v in water). After heating to 100° C. for 20 min, the solutions were cooled to room temperature and their absorbance at 532 nm recorded. The data are reported as A/Ao, where A is the absorbance at a 532 nm at a specific chelator concentration, and Ao is the absorbance at 532 nm for the background reaction containing no added chelator. All measurements were done in triplicate, and error bars reflect the standard deviation from triplicate runs.
A short description of data set [2]: UV-vis spectra of iron complex formation. Type of data set: physicochemical. The conditions noted are these: 60 μM BSIH, 30 μM Fe(NO3)3 in MeOH. From the text:
FIG. 1. […] The expanded view in the inset compares the mono and bis species [Fe(SIH)Cl2(CH3OH)] and [Fe(SIH)2]NO3, respectively.
These two species are distinguishable by a ligand-field band centered at 658 nm that is more pronounced in the mono species compared to the bis species (FIG. 1 inset).

Data set [3] in a line: time course for iron complex formation following addition of excess H2O2 (UV-vis). As to conditions: 100 mM H2O2 added to 1.5 mM Fe(NO3)3 and 3.0 mM BSIH in MeOH. It is filed as physicochemical. The protocol:
FIG. 2. UV-vis spectra showing the formation of [Fe(SIH)]^2+ and [Fe(SIH)2]^+ upon addition of 100 mM H2O2 to a solution of 1.5 mM Fe(NO3)3 and 3.0 mM BSIH in MeOH.
Although the kinetics are complicated by the mono to bis Fe(SIH)x coordination, the data fit a pseudo first-order expression to give kobs=1.6×10^−3 s^−1.

Molecules are shown by their SMILES. “Also recorded” adds a separate entry of the source.

In the case of `CC1(C)OB(c2ccccc2C=O)OC1(C)C` [Bsal, (2-formylphenyl)boronic acid pinacol ester], the “effect of chelator concentration on deoxyribose degradation, A/Ao at 532 nm” value (shortened to “effect of chelator concentration”) in data set [1] is reported as “Neither Bsal nor Sal has a significant influence”.

As to `CC(=O)N(O)CCCCCNC(=O)CCC(=O)N(O)CCCCCNC(=O)CCC(=O)N(O)CCCCCN` [DFO, desferrioxamine], the “effect of chelator concentration” value in data set [1] is given as “decrease”.

Regarding `O=C(NN=Cc1ccccc1O)c1ccncc1` [SIH, salicylaldehyde isonicotinoyl hydrazone], the “effect of chelator concentration” value in data set [1] is recorded as “decrease”.

In the case of `O=C(O)CN(CCN(CC(=O)O)CC(=O)O)CC(=O)O` [EDTA], in data set [1], the “effect of chelator concentration” value is “significant increase”.

Turning to `CC1(C)OB(c2ccccc2C=NNC(=O)c2ccncc2)OC1(C)C` [BSIH, Isonicotinic acid [2-(4,4,5,5-tetramethyl-[1,3,2]dioxaborolan-2-yl)-benzylidene]-hydrazide], in data set [2] (0.6 mM H2O2 added), the “iron complex formation after addition of H2O2 (UV-vis spectrum)” value is “results in formation of a new spectrum matching that of [Fe(SIH)2]^+; also recorded: results in a spectrum (open circles) that matches that of [Fe(SIH)2]^+”. For the same compound, the “complex formation with Fe^3+ (UV-vis spectrum)” value in data set [2] (no H2O2) is given as “does not form a complex; also recorded: no complex formation”. Moreover, the “kobs (pseudo first-order) for iron complex formation” value in data set [3] came to 0.0016 s⁻¹. Further, the “effect of chelator concentration” value in data set [1] is “protects against deoxyribose degradation as well as both DFO and SIH”.
